Source: PubChem BioAssay (NCI)
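96-well plates; 48 h exposure; 5 concentrations. Endpoints by linear interpolation between flanking doses. Not reached: highest tested concentration assigned. At the TGI there is no net growth.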

Key:
Test in all cases: growth of human tumour cells (NCI), 48 h
SNB-19 CNS = tested on: SNB-19 CNS
PC-3 prostate = tested on: PC-3 prostate
HOP-92 NSCLC = tested on: HOP-92 NSCLC
MDA-MB-231 breast = tested on: MDA-MB-231 breast
UACC-62 melanoma = tested on: UACC-62 melanoma
SW-620 colon = tested on: SW-620 colon
LOX IMVI melanoma = tested on: LOX IMVI melanoma
SK-OV-3 ovarian = tested on: SK-OV-3 ovarian
NCI/ADR-RES ovarian = tested on: NCI/ADR-RES ovarian
SN12C renal = tested on: SN12C renal
OVCAR-8 ovarian = tested on: OVCAR-8 ovarian
BT-549 breast = tested on: BT-549 breast
SK-MEL-5 melanoma = tested on: SK-MEL-5 melanoma
SF-539 CNS = tested on: SF-539 CNS
OVCAR-5 ovarian = tested on: OVCAR-5 ovarian
ACHN renal = tested on: ACHN renal
A498 renal = tested on: A498 renal
MCF7 breast = tested on: MCF7 breast
CCRF-CEM leukemia = tested on: CCRF-CEM leukemia
COLO 205 colon = tested on: COLO 205 colon
OVCAR-3 ovarian = tested on: OVCAR-3 ovarian
UACC-257 melanoma = tested on: UACC-257 melanoma
HCC-2998 colon = tested on: HCC-2998 colon
HCT-15 colon = tested on: HCT-15 colon
MOLT-4 leukemia = tested on: MOLT-4 leukemia
SR leukemia = tested on: SR leukemia
786-0 renal = tested on: 786-0 renal
OVCAR-4 ovarian = tested on: OVCAR-4 ovarian
MALME-3M melanoma = tested on: MALME-3M melanoma
K-562 leukemia = tested on: K-562 leukemia
SK-MEL-2 melanoma = tested on: SK-MEL-2 melanoma
NCI-H226 lung = tested on: NCI-H226 lung
DU-145 prostate = tested on: DU-145 prostate
A549 NSCLC = tested on: A549 NSCLC
SK-MEL-28 melanoma = tested on: SK-MEL-28 melanoma
MDA-N = tested on: MDA-N
SF-295 CNS = tested on: SF-295 CNS
CAKI-1 renal = tested on: CAKI-1 renal
HOP-62 NSCLC = tested on: HOP-62 NSCLC
NCI-H23 lung = tested on: NCI-H23 lung
U251 CNS = tested on: U251 CNS
HCT-116 colon = tested on: HCT-116 colon
HL-60(TB) leukemia = tested on: HL-60(TB) leukemia
MDA-MB-435 = tested on: MDA-MB-435
T-47D breast = tested on: T-47D breast
SF-268 CNS = tested on: SF-268 CNS
IGROV1 ovarian = tested on: IGROV1 ovarian
NCI-H522 lung = tested on: NCI-H522 lung
M14 melanoma = tested on: M14 melanoma
RXF 393 renal = tested on: RXF 393 renal
NCI-H460 lung = tested on: NCI-H460 lung
UO-31 renal = tested on: UO-31 renal
SNB-75 CNS = tested on: SNB-75 CNS
EKVX NSCLC = tested on: EKVX NSCLC
HS 578T breast = tested on: HS 578T breast
TK-10 renal = tested on: TK-10 renal
RPMI-8226 leukemia = tested on: RPMI-8226 leukemia
HT29 colon = tested on: HT29 colon
KM12 colon = tested on: KM12 colon

CCCC1(NC(=O)C(F)(F)F)CC(OC)OC2COC(c3ccccc3)OC21 (stereo unspecified)
TGI (SNB-19 CNS): > 100 µM
TGI (PC-3 prostate): > 100 µM
TGI (HOP-92 NSCLC): > 100 µM
TGI (MDA-MB-231 breast): > 100 µM
TGI (UACC-62 melanoma): > 100 µM
TGI (SW-620 colon): > 100 µM
TGI (LOX IMVI melanoma): > 100 µM
TGI (SK-OV-3 ovarian): > 100 µM
TGI (NCI/ADR-RES ovarian): > 100 µM
TGI (SN12C renal): > 100 µM
TGI (OVCAR-8 ovarian): > 100 µM
TGI (BT-549 breast): > 100 µM
TGI (SK-MEL-5 melanoma): 45.2 µM
TGI (SF-539 CNS): > 100 µM
TGI (OVCAR-5 ovarian): > 100 µM
TGI (ACHN renal): > 100 µM
TGI (A498 renal): > 100 µM
TGI (MCF7 breast): > 100 µM
TGI (CCRF-CEM leukemia): > 100 µM
TGI (COLO 205 colon): 48.6 µM
TGI (OVCAR-3 ovarian): > 100 µM
TGI (UACC-257 melanoma): > 100 µM
TGI (HCC-2998 colon): > 100 µM
TGI (HCT-15 colon): > 100 µM
TGI (MOLT-4 leukemia): > 100 µM
TGI (SR leukemia): > 100 µM
TGI (786-0 renal): > 100 µM
TGI (OVCAR-4 ovarian): > 100 µM
TGI (MALME-3M melanoma): > 100 µM
TGI (K-562 leukemia): > 100 µM
TGI (SK-MEL-2 melanoma): > 100 µM
TGI (NCI-H226 lung): > 100 µM
TGI (DU-145 prostate): > 100 µM
TGI (A549 NSCLC): > 100 µM
TGI (SK-MEL-28 melanoma): > 100 µM
TGI (MDA-N): > 100 µM
TGI (SF-295 CNS): > 100 µM
TGI (CAKI-1 renal): > 100 µM
TGI (HOP-62 NSCLC): > 100 µM
TGI (NCI-H23 lung): > 100 µM
TGI (U251 CNS): > 100 µM
TGI (HCT-116 colon): > 100 µM
TGI (HL-60(TB) leukemia): 95.3 µM
TGI (MDA-MB-435): > 100 µM
TGI (T-47D breast): > 100 µM
TGI (SF-268 CNS): > 100 µM
TGI (IGROV1 ovarian): > 100 µM
TGI (NCI-H522 lung): > 100 µM
TGI (M14 melanoma): > 100 µM
TGI (RXF 393 renal): > 100 µM
TGI (NCI-H460 lung): > 100 µM
TGI (UO-31 renal): > 100 µM
TGI (SNB-75 CNS): > 100 µM
TGI (EKVX NSCLC): > 100 µM
TGI (HS 578T breast): > 100 µM

CC1CNc2ccccc2N=C1NN (stereo unspecified)
TGI (SNB-19 CNS): > 100 µM
TGI (PC-3 prostate): > 100 µM
TGI (MDA-MB-231 breast): > 100 µM
TGI (UACC-62 melanoma): > 100 µM
TGI (SW-620 colon): > 100 µM
TGI (LOX IMVI melanoma): > 100 µM
TGI (SK-OV-3 ovarian): > 100 µM
TGI (TK-10 renal): > 100 µM
TGI (NCI/ADR-RES ovarian): > 100 µM
TGI (SN12C renal): > 100 µM
TGI (OVCAR-8 ovarian): > 100 µM
TGI (BT-549 breast): > 100 µM
TGI (SK-MEL-5 melanoma): > 100 µM
TGI (SF-539 CNS): > 100 µM
TGI (OVCAR-5 ovarian): > 100 µM
TGI (ACHN renal): > 100 µM
TGI (A498 renal): > 100 µM
TGI (MCF7 breast): > 100 µM
TGI (CCRF-CEM leukemia): > 100 µM
TGI (COLO 205 colon): > 100 µM
TGI (OVCAR-3 ovarian): > 100 µM
TGI (UACC-257 melanoma): > 100 µM
TGI (HCC-2998 colon): > 100 µM
TGI (HCT-15 colon): > 100 µM
TGI (RPMI-8226 leukemia): > 100 µM
TGI (HT29 colon): > 100 µM
TGI (SR leukemia): > 100 µM
TGI (786-0 renal): > 100 µM
TGI (OVCAR-4 ovarian): > 100 µM
TGI (MALME-3M melanoma): > 100 µM
TGI (K-562 leukemia): > 100 µM
TGI (SK-MEL-2 melanoma): > 100 µM
TGI (NCI-H226 lung): > 100 µM
TGI (DU-145 prostate): > 100 µM
TGI (A549 NSCLC): > 100 µM
TGI (SK-MEL-28 melanoma): > 100 µM
TGI (MDA-N): > 100 µM
TGI (SF-295 CNS): > 100 µM
TGI (CAKI-1 renal): > 100 µM
TGI (HOP-62 NSCLC): > 100 µM
TGI (NCI-H23 lung): > 100 µM
TGI (U251 CNS): > 100 µM
TGI (HCT-116 colon): > 100 µM
TGI (HL-60(TB) leukemia): > 24.8 µM
TGI (MDA-MB-435): > 100 µM
TGI (T-47D breast): > 100 µM
TGI (SF-268 CNS): > 100 µM
TGI (IGROV1 ovarian): > 100 µM
TGI (NCI-H522 lung): > 100 µM
TGI (M14 melanoma): > 100 µM
TGI (RXF 393 renal): > 100 µM
TGI (NCI-H460 lung): > 100 µM
TGI (KM12 colon): > 100 µM
TGI (UO-31 renal): > 100 µM
TGI (EKVX NSCLC): > 100 µM
TGI (HS 578T breast): > 100 µM
